According to patent US9956232B2, “Dialkyl-phosphinoyl-alkane (Dapa) compounds and compositions for treatment of lower gastrointestinal tract disorders” (priority 2016, dated 2018):

Assays:
[1] = test system: pentobarbital-anesthetized male rats; assay: Shaking frequency (wet-dog shaking) of anesthetized rats after intravenous, perioral or topical delivery; assay type: in vivo; conditions: anesthetized rat
Protocol: In experiments conducted here, test compounds were evaluated for “wet-dog shaking” as a model of cooling sensation. Using a standardized procedure, test compounds were compared in their ability to stimulate the shaking response by intravenous injection into a cannulated femoral vein, by perioral administration, and by topical delivery to the abdominal skin.
Each rat was given two injections with a 30 min interval. […] Shaking frequency was counted for 15 min after injection. Shaking was observed immediately after i.v. injection and at least 78% of the total shakes occurred in the first 5 min after injection. The response in the second trial was at least as robust in the first trial, showing the lack of desensitization.
Test compounds were dissolved in saline and administered by oral gavage to pentobarbital-anesthetized male albino rats at 20 mg/kg at a volume of 0.1 mL/100 g body weight [N=3 to 4 rats per compound]. Shaking was counted over a 40 min period and recorded at 10-min intervals.
For topical application of DAPA, the abdominal skin of the anesthetized rat was shaved and 20 μL of the pure DAPA was applied with a micropipette onto a ˜1 cm diameter circle of skin, enclosed with a ring of cream [Baby cream “Nevskaya kosmetika Detskyi” Nevskaya Kosmetika Inc., Saint-Petersburg 192029], as shown in FIG. 5D. The number of shakes was counted for 1 hr after application.

[2] = molecular target: TRPM8 (Homo sapiens, UniProt Q7Z2W7); assay: TRPM8 receptor agonist assay (Fluo-8 calcium, FLIPR); assay type: cell-based; design: host or cells: CHO cells, stably transfected
Chain of TRPM8 (Q7Z2W7 whole entry): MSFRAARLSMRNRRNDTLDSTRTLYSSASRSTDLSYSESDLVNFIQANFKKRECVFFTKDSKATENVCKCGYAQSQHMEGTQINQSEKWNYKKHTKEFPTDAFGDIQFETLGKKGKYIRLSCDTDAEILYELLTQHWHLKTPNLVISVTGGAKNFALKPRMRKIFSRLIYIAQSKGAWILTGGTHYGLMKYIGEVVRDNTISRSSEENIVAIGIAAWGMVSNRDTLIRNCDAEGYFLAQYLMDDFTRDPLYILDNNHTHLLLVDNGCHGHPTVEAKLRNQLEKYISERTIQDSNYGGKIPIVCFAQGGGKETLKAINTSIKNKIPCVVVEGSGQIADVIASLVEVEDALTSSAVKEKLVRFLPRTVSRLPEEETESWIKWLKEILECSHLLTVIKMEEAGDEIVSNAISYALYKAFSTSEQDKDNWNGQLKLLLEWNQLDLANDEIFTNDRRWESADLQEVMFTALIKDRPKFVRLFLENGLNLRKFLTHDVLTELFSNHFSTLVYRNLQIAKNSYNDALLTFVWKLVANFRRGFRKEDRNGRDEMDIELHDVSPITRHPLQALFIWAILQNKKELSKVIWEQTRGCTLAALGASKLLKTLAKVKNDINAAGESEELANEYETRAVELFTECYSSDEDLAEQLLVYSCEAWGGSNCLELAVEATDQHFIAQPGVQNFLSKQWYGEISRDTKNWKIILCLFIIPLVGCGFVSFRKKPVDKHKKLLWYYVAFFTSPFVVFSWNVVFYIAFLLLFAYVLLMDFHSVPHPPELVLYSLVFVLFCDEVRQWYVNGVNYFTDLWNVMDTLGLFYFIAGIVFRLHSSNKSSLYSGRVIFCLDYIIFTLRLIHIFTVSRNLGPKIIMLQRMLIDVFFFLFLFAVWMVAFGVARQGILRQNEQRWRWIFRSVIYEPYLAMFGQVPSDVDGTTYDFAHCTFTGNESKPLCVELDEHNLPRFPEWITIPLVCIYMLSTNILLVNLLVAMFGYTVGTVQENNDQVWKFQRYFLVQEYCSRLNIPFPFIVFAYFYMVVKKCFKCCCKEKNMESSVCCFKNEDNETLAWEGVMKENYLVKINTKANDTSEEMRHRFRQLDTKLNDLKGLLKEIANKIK
Protocol: Compounds were tested on (CHO) cells stably transfected with human TRPM8 cDNAs using a Fluo-8 calcium kit and a Fluorescence Imaging Plate Reader ([…]™) instrument. […] Solutions were prepared by diluting stock solutions in a HEPES-buffered physiological saline (HBPS) solution. Test compound and control formulations were loaded in polypropylene or glass-lined 384-well plates, and placed into the FLIPR instrument (Molecular Devices Corporation, Union City, Calif., USA). Each was tested at 8 concentrations with n=4 replicates per determination. […] For […]™ assay, cells were plated in 384-well black wall, flat clear-bottom microtiter plates (Type: BD Biocoat Poly-D-Lysine Multiwell Cell Culture Plate) at approximately 30,000 cells per well. Cells were incubated at 37° C. overnight to reach a near confluent monolayer appropriate for use in a fluorescence assay. The test procedure was to remove the growth media and to add 40 μL of HBPS containing Fluo-8 for 30 minutes at 37° C. 10 μL of test compound, vehicle, or control solutions in HBPS were added to each well and read for 4 minutes. Concentration-response data were analysed via the FLIPR Control software that is supplied with the FLIPR System (MDS-AT) and fitted to a Hill equation.

[3] = molecular target: TRPV1 (Homo sapiens, UniProt Q8NER1); assay: TRPV1 calcium imaging (Fura-2AM) in transfected KNRK cells; assay type: cell-based; design: expressed in transfected cells; host or cells: KNRK cells, transient transfection with Lipofectamine 2000; conditions: KNRK cells transiently transfected with TRPV1
Chain of TRPV1 (Q8NER1 whole entry, species assumed): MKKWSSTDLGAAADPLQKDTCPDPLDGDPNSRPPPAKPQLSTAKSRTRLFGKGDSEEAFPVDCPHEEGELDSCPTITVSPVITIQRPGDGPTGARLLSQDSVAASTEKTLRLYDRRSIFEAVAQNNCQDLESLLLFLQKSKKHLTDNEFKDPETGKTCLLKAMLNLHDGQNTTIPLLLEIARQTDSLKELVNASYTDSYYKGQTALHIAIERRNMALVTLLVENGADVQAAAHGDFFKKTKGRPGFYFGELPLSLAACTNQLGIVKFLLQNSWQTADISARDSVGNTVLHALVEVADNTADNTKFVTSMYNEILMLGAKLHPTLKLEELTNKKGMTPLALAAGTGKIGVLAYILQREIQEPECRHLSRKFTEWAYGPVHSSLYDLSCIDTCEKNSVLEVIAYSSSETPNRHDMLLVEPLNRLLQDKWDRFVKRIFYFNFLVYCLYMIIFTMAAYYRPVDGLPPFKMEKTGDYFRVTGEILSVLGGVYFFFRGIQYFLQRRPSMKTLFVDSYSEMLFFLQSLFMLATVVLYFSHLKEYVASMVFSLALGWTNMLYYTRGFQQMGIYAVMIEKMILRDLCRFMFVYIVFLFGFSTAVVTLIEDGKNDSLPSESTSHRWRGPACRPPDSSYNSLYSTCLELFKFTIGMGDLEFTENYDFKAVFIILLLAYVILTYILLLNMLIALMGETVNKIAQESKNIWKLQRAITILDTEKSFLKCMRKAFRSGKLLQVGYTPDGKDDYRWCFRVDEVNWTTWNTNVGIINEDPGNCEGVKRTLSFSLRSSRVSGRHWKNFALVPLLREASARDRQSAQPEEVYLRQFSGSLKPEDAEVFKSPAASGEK
Protocol: (§1) DAPA-1-9 was tested on TRPV1 channels and TRPA1 channels expressed in KNRK cells (Kirsten murine sarcoma virus transformed kidney epithelial cells). KNRK cells were cultured as a monolayer and maintained in DMEM (Life Technologies), supplemented with 10% FBS (Life Technologies), 100 units/ml penicillin and 100 μg/ml streptomycin, in an incubator of 5% CO2 at 37° C. After suspension, the cells were coated on cover slips for 12 hours, then transiently transfected with cDNA (pc3.1 DNA) for TRPV1 or TRPA1 with Lipofectamine 2000 (Invitrogen) for 24 hr, and loaded with Fura-2AM™ (Molecular Probes) for 40 min at 37° C. After washing and recovery, KNRK cells were imaged at 340 and 380 nm excitation to detect free calcium influx. An increase of 50% of the 340/380 ratio was considered as the response threshold which were measured under blinded conditions for plasmids. Compounds were applied to the bath and calcium response was acquired by an inverted Nikon fluorescence microscope with a CoolSnap HQ2 CCD camera (Photometrics, Tucson, Ariz.). Data were quantified offline with the Nikon-NIS program.

[4] = molecular target: TRPA1 (Homo sapiens, UniProt O75762); assay: TRPA1 calcium imaging (Fura-2AM) in transfected KNRK cells; assay type: cell-based; design: expressed in transfected cells; host or cells: KNRK cells, transient transfection with Lipofectamine 2000; conditions: KNRK cells transiently transfected with TRPA1
Chain of TRPA1 (O75762 whole entry, species assumed): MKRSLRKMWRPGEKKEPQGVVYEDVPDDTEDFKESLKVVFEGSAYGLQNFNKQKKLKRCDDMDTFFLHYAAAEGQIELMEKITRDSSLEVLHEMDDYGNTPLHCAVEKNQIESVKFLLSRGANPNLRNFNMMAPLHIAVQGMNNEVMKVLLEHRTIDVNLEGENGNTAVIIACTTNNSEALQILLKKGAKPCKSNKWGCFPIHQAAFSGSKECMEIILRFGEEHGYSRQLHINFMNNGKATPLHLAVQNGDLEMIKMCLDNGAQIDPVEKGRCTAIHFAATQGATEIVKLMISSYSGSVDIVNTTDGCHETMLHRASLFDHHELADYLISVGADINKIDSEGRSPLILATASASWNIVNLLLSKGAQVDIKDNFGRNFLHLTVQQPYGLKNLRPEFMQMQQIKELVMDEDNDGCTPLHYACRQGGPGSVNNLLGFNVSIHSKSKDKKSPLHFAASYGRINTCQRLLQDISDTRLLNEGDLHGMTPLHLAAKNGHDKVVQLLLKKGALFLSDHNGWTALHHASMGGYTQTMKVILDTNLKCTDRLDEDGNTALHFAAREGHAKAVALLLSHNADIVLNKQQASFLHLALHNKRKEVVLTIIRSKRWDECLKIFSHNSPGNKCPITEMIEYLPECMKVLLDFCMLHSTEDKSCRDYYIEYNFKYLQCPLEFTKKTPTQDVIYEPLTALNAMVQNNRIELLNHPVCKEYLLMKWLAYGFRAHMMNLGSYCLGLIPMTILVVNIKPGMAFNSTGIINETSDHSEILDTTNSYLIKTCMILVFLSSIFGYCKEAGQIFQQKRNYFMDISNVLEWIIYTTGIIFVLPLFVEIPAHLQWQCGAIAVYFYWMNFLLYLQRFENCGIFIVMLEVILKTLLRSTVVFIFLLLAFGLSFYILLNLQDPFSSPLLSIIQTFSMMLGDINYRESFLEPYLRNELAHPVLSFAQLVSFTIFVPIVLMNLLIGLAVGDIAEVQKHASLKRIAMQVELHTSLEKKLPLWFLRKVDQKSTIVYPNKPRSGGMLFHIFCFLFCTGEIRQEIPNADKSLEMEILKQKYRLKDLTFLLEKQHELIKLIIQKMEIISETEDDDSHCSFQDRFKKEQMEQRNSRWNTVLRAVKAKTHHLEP
Protocol: as §1

## CCCCCCCCCP(=O)(C(C)C)C(C)C [DIPA-1-9, 1-[Diisopropyl-phosphinoyl]-nonane]
[1]; 2 mg/kg i.v., 2nd trial, counted for 15 min
  Shaking frequency, Intravenous: 3 ± 1 shakes
[1]; 20 mg/kg by oral gavage, counted for 40 min
  Shaking frequency, Perioral: 0 shakes
[1]; 20 μL pure compound on shaved abdominal skin, counted for 1 hr
  Shaking frequency, Topical: 0 shakes
[2]; TRPM8 relative potency as repeated in Table 4
  ×Menthol: 4.0
[2]; relative to menthol = 1.0 (Table 2)
  Relative Potency: 4.0
[3]
  agonist or antagonist activities against TRPV1: devoid of agonist or antagonist activities
[4]
  agonist or antagonist activities against TRPA1: devoid of agonist or antagonist activities
